# According to ChEMBL document CHEMBL5550138, “Histidine-Covalent Stapled Alpha-Helical Peptides Targeting hMcl-1” (J Med Chem, 2024):
# pIC50: −log10 of the molar value. Active and inactive are the calls of the source. No cut-off for these calls is given here. Positions of bridges follow the written chain, without caps; N, C: chain ends. Non-standard residues stand in square brackets, D forms with d. Residues, ends and D or L forms follow the SMILES beside them. *: point of attachment. Benzoyl(2-OMe,5-SO2F) = COc1ccc(S(=O)(=O)F)cc1C(=O)*; Ser(allyl) = C=CCOC[C@H](N)C(=O)O; S5 = C=CCCC[C@](C)(N)C(=O)O; Dap = NC[C@H](N)C(=O)O
# Columns and labels:
# [1] = organism: Homo sapiens; assay: (§1) Covalent binding affinity to N-terminal His6-tagged human Mcl-1 ligand binding domain (172 to 323 residues) His252Ala mutant expressed in Escherichia coli BL21(DE3) gold pLysS cells assessed as stable covalent adduct formation by measuring band shift at 100 uM incubated for 16 hrs by SDS PAGE analysis
# [2] = organism: Homo sapiens; assay: as §1, with “Lys234Ala” for “His252Ala”
# [3] = target: T1, Induced myeloid leukemia cell differentiation protein Mcl-1 (Homo sapiens, UniProt Q07820); assay: Displacement of biotinylated BH3 peptide from N-terminal His6-tagged human Mcl-1 ligand binding domain (172 to 323 residues) expressed in Escherichia coli BL21(DE3) gold pLysS cells preincubated with protein for 2 hrs followed by incubation with BH3 peptide for 2 hrs by DELFIA assay
# [4] = target: T1, Induced myeloid leukemia cell differentiation protein Mcl-1; assay: Covalent binding affinity to N-terminal His6-tagged human Mcl-1 ligand binding domain (172 to 323 residues) expressed in Escherichia coli BL21(DE3) gold pLysS cells assessed as stable covalent adduct formation by measuring band shift at 100 uM incubated for 16 hrs by SDS PAGE analysis
# [5] = target: T2, Bcl-2-related protein A1 (Homo sapiens) (UniProt Q16548); assay: Covalent binding affinity to N-terminal His6-tagged human Bfl-1 (1 to 149 residues) assessed as band shift at 100 uM incubated for 16 hrs by SDS PAGE analysis
# T2 sequence (whole entry): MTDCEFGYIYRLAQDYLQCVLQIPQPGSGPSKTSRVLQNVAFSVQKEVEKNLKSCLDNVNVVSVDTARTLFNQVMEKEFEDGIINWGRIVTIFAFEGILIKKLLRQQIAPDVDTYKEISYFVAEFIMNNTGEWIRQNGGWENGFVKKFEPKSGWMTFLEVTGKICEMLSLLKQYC
# [6] = tested on: A549; assay: Induction of cell lysis in NucLight Red-labeled human A549 cells assessed as cell bursting at 100 uM measured after 20 mins by IncuCyte S3 live cell analysis based fluorescence microscopy; assay type: toxicity; settings: a549, 20 min
# T1 sequence (Q07820 whole entry, the tested form may be a part): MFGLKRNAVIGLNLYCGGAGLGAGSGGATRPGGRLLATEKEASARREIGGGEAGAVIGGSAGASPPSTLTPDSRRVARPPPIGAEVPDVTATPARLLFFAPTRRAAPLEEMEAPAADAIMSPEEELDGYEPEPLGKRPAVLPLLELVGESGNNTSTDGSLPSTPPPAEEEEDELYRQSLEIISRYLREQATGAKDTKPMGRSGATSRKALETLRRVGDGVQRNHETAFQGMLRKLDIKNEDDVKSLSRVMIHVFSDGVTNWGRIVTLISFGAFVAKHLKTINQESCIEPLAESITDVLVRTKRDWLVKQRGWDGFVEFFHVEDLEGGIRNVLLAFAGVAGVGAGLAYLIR
Compound,Activity [1],Activity [2],pIC50 [3],Activity [4],Activity [5],Activity [6]
CC[C@H](C)[C@H](NC(=O)[C@H](CCCNC(=N)N)NC(=O)[C@]1(C)CCC/C=C\CCC[C@](C)(NC(=O)[C@@H](NC(=O)[C@@H](CNC(=O)c2cc(S(=O)(=O)F)ccc2OC)NC(C)=O)[C@@H](C)CC)C(=O)N[C@H](CCC(=O)O)C(=O)N[C@@H](CCC(N)=O)C(=O)N[C@@H](CC(C)C)C(=O)N1)C(=O)NCC(=O)N[C@@H](CC(=O)O)C(=O)N[C@@H](CCCNC(=N)N)C(=O)N[C@@H](Cc1ccccc1)C(N)=O,Active,Active,6.76,Active,inactive,–
CC[C@H](C)[C@H](NC(=O)[C@@H]1CCCCn2cc(nn2)CCC[C@H](NC(=O)[C@H](C)NC(=O)[C@@H](NC(=O)[C@H](CNC(=O)c2cc(S(=O)(=O)F)ccc2OC)NC(C)=O)[C@@H](C)CC)C(=O)N[C@@H](CCC(N)=O)C(=O)N[C@@H](CC(C)C)C(=O)N[C@@H](CCCNC(=N)N)C(=O)N1)C(=O)NCC(=O)N[C@@H](CC(=O)O)C(=O)N[C@@H](CCCNC(=N)N)C(=O)N[C@@H](Cc1ccccc1)C(N)=O,Active,Active,7.68,Active,inactive,–
"CC[C@H](C)[C@H](NC(=O)[C@H](CCCNC(=N)N)NC(=O)[C@H](CCCNC(=N)N)NC(=O)[C@H](CC(C)C)NC(=O)[C@H](CCC(N)=O)NC(=O)[C@H](CCC(=O)O)NC(=O)[C@H](C)NC(=O)[C@@H](NC(=O)[C@H](CNC(=O)c1cc(S(=O)(=O)F)ccc1OC)NC(C)=O)[C@@H](C)CC)C(=O)NCC(=O)N[C@@H](CC(=O)O)C(=O)N[C@@H](CCCNC(=N)N)C(=O)N[C@@H](Cc1ccccc1)C(N)=O (Ac-[Dap](Benzoyl(2-OMe,5-SO2F))IAEQLRRIGDRF-NH2)",–,–,7.74,–,–,–
"CC[C@H](C)[C@H](NC(=O)[C@H](CNC(=O)c1cc(S(=O)(=O)F)ccc1OC)NC(C)=O)C(=O)N[C@@H](C)C(=O)N[C@@]1(C)CCC/C=C\CCC[C@@](C)(C(=O)N[C@H](C(=O)NCC(=O)N[C@@H](CC(=O)O)C(=O)N[C@@H](C)C(=O)N[C@@H](Cc2ccccc2)C(N)=O)[C@@H](C)CC)NC(=O)[C@H](CCCNC(=N)N)NC(=O)[C@H](CC(C)C)NC(=O)[C@H](CCC(N)=O)NC1=O (Ac-[Dap](Benzoyl(2-OMe,5-SO2F))IA[S5]QLR[S5]IGDAF-NH2; staple (Z) 4-8)",Active,Active,7.92,Active,inactive,–
"CC[C@H](C)[C@H](NC(=O)[C@H](CNC(=O)c1cc(S(=O)(=O)F)ccc1OC)NC(C)=O)C(=O)N[C@@H](C)C(=O)N[C@@]1(C)CCC/C=C\CCC[C@@](C)(C(=O)N[C@H](C(=O)NCC(=O)N[C@@H](CC(=O)O)C(=O)N[C@@H](CCCNC(=N)N)C(=O)N[C@@H](Cc2ccccc2)C(N)=O)[C@@H](C)CC)NC(=O)[C@H](CCCNC(=N)N)NC(=O)[C@H](CC(C)C)NC(=O)[C@H](CCC(N)=O)NC1=O (Ac-[Dap](Benzoyl(2-OMe,5-SO2F))IA[S5]QLR[S5]IGDRF-NH2; staple (Z) 4-8)",Active,Active,7.85,Active,inactive,–
"CC[C@H](C)[C@H](NC(=O)[C@H](CNC(=O)c1cc(S(=O)(=O)F)ccc1OC)NC(C)=O)C(=O)N[C@@H](C)C(=O)N[C@H]1COC/C=C\CCC[C@@](C)(C(=O)N[C@H](C(=O)NCC(=O)N[C@@H](CC(=O)O)C(=O)N[C@@H](CCCNC(=N)N)C(=O)N[C@@H](Cc2ccccc2)C(N)=O)[C@@H](C)CC)NC(=O)[C@H](CCCNC(=N)N)NC(=O)[C@H](CC(C)C)NC(=O)[C@H](CCC(N)=O)NC1=O (Ac-[Dap](Benzoyl(2-OMe,5-SO2F))IA[Ser(allyl)]QLR[S5]IGDRF-NH2; staple (Z) 4-8)",Active,Active,8.18,Active,inactive,–
"CC[C@H](C)[C@H](NC(=O)[C@H](C)NC(=O)[C@H](CCCNC(=N)N)NC(=O)[C@H](CC(C)C)NC(=O)[C@H](CCC(N)=O)NC(=O)[C@]1(C)CCC/C=C/CCC[C@](C)(NC(C)=O)C(=O)N[C@@H](CNC(=O)c2cc(S(=O)(=O)F)ccc2OC)C(=O)N[C@@H]([C@@H](C)CC)C(=O)N[C@@H](C)C(=O)N1)C(=O)NCC(=O)N[C@@H](CC(=O)O)C(=O)N[C@@H](C)C(=O)N[C@@H](Cc1ccccc1)C(N)=O (Ac-[S5][Dap](Benzoyl(2-OMe,5-SO2F))IA[S5]QLRAIGDAF-NH2; staple (E) 1-5)",Active,Active,7.77,Active,inactive,–
"CC[C@H](C)[C@H](NC(=O)[C@H](C)NC(=O)[C@H](CCCNC(=N)N)NC(=O)[C@H](CC(C)C)NC(=O)[C@H](CCC(N)=O)NC(=O)[C@]1(C)CCC/C=C/CCC[C@](C)(NC(C)=O)C(=O)N[C@@H](CNC(=O)c2cc(S(=O)(=O)F)ccc2OC)C(=O)N[C@@H]([C@@H](C)CC)C(=O)N[C@@H](C)C(=O)N1)C(=O)NCC(=O)N[C@@H](CC(=O)O)C(=O)N[C@@H](CCCNC(=N)N)C(=O)N[C@@H](Cc1ccccc1)C(N)=O (Ac-[S5][Dap](Benzoyl(2-OMe,5-SO2F))IA[S5]QLRAIGDRF-NH2; staple (E) 1-5)",Active,Active,7.46,Active,inactive,–
"CC[C@H](C)[C@H](NC(=O)[C@H](CC(=O)O)NC(=O)[C@H](CCCNC(=N)N)NC(=O)[C@H](CC(C)C)NC(=O)[C@H](CCC(N)=O)NC(=O)[C@]1(C)CCC/C=C/CCC[C@](C)(NC(C)=O)C(=O)N[C@@H](CNC(=O)c2cc(S(=O)(=O)F)ccc2OC)C(=O)N[C@@H]([C@@H](C)CC)C(=O)N[C@@H](C)C(=O)N1)C(=O)NCC(=O)N[C@@H](CC(=O)O)C(=O)N[C@@H](CCCNC(=N)N)C(=O)N[C@@H](Cc1ccccc1)C(N)=O (Ac-[S5][Dap](Benzoyl(2-OMe,5-SO2F))IA[S5]QLRDIGDRF-NH2; staple (E) 1-5)",Active,Active,7.52,Active,inactive,–
"CC[C@H](C)[C@H](NC(=O)[C@H](CCCNC(=N)N)NC(=O)[C@H](CCCNC(=N)N)NC(=O)[C@H](CC(C)C)NC(=O)[C@H](CCC(N)=O)NC(=O)[C@]1(C)CCC/C=C/CCC[C@](C)(NC(C)=O)C(=O)N[C@@H](CNC(=O)c2cc(S(=O)(=O)F)ccc2OC)C(=O)N[C@@H]([C@@H](C)CC)C(=O)N[C@@H](C)C(=O)N1)C(=O)NCC(=O)N[C@@H](CC(=O)O)C(=O)N[C@@H](CCCNC(=N)N)C(=O)N[C@@H](Cc1ccccc1)C(N)=O (Ac-[S5][Dap](Benzoyl(2-OMe,5-SO2F))IA[S5]QLRRIGDRF-NH2; staple (E) 1-5)",Active,Active,7.62,Active,inactive,Toxic
